Laboratory results as given in US6806230B1, “Pyrimidine derivatives and herbicides containing them” (Kumiai Chemical Industry Co., Ltd., priority 1999, dated 2004).

Tests used:
Type in all cases: in vivo
monochoria (Mo) [1] = assay: Test Example 1: herbicidal effects by flooded paddy field treatment; parameters: herbicidal effects, Mo (monochoria):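 0-5 growth inhibition grade; 5 = over 90%; 4 = 70-90%; 3 = 50-70%; 2 = 30-50%; 1 = 10-30%; 0 = under 10%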; conditions: for herbicidal effects, Mo (monochoria): dose 100 g active ingredient per 10 ares, examined on the 21st day after treatment, standards of Table 44; for Herbicidal effect index, Mo: dose 100 gai/10a, examined on 21st day after treatment, index 0-5 per Table 44;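 on Herbicidal effect index, Mo: 0-5 growth inhibition grade; 5 = over 90%; 4 = 70-90%; 3 = 50-70%; 2 = 30-50%; 1 = 10-30%; 0 = under 10%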
Experimental: (§1) In a 100 cm^2 plastic pot, paddy field soil was filled and paddled. Then, seeds of barnyard grass (Eo) and monochoria (Mo) were sown, and water was introduced to a depth of 3 cm. Next day, a wettable powder prepared in accordance with Formulation Example 1 was diluted with water and dropwise applied to the water surface. The dose was 100 g of the active ingredient per 10 ares. Thereafter, cultivation was carried out in a green house, and on the 21st day after the treatment, the herbicidal effects were examined in accordance with the standards as identified in Table 44.

barnyard grass (Eo) [2] = assay: as above; parameters: herbicidal effects, Eo (barnyard grass):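 0-5 growth inhibition grade; 5 = over 90%; 4 = 70-90%; 3 = 50-70%; 2 = 30-50%; 1 = 10-30%; 0 = under 10%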; conditions: for herbicidal effects, Eo (barnyard grass): dose 100 g active ingredient per 10 ares, examined on the 21st day after treatment, standards of Table 44; for Herbicidal effect index, Eo: dose 100 gai/10a, examined on 21st day after treatment, index 0-5 per Table 44
Experimental: as §1

rice (Or) = assay: Test Example 4: selectivity for a crop plant by flooded paddy field treatment; parameters: scale not given here; conditions: rice transplanted at second leaf stage; for Or (herbicidal effect index on crop): dose 25 gai/10a, 21st day after treatment, index per Table 44; for Or (effect on crop plant rice, index): dose 25 g active ingredient per 10 ares, examined on the 21st day after treatment
Experimental: as §1, with “pot, a” for “pot,”, “sown, and rice (Or) of second leaf stage was transplanted,” for “sown,”, “was 25” for “was 100”, “standards of” for “standards as identified in”

monochoria (Mo) [3] = assay: as above; parameters: scale not given here; conditions: for Mo (herbicidal effect index): monochoria, dose 25 gai/10a, 21st day after treatment, index per Table 44; for Mo (herbicidal effects, index): dose 25 g active ingredient per 10 ares, examined on the 21st day after treatment
Experimental: as §1, with “pot, a” for “pot,”, “sown, and rice (Or) of second leaf stage was transplanted,” for “sown,”, “was 25” for “was 100”, “standards of” for “standards as identified in”

barnyard grass (Eo) [4] = assay: as above; parameters: scale not given here; conditions: for Eo (herbicidal effect index): barnyard grass, dose 25 gai/10a, 21st day after treatment, index per Table 44; for Eo (herbicidal effects, index): dose 25 g active ingredient per 10 ares, examined on the 21st day after treatment
Experimental: as §1, with “pot, a” for “pot,”, “sown, and rice (Or) of second leaf stage was transplanted,” for “sown,”, “was 25” for “was 100”, “standards of” for “standards as identified in”

barnyard grass (Ec) = assay: Test Example 2: herbicidal effects by upland soil treatment; parameters: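 0-5 growth inhibition grade; 5 = over 90%; 4 = 70-90%; 3 = 50-70%; 2 = 30-50%; 1 = 10-30%; 0 = under 10%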; conditions: dose 100 g active ingredient per 10 ares, examined on the 21st day after treatment
Experimental: In a 80 cm^2 plastic pot, upland soil was filled, and seeds of barnyard grass (Ec) and green foxtail (Se) were sown and covered with soil. A wettable powder prepared in accordance with Formulation Example 1 was diluted with water and uniformly applied to the soil surface by means of a small size spray at a rate of 100 l per 10 ares, so that the dose of the active ingredient would be 100 g per 10 ares. Thereafter, cultivation was carried out in a green house, and on the 21st day after the treatment, the herbicidal effects were examined in accordance with the standards as identified in Table 44.
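Wherever Herbicidal effect index, Eo is given: 0-5 growth inhibition grade; 5 = over 90%; 4 = 70-90%; 3 = 50-70%; 2 = 30-50%; 1 = 10-30%; 0 = under 10%.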

Row | SMILES | herbicidal effects, Mo (monochoria) (monochoria (Mo) [1]) | herbicidal effects, Eo (barnyard grass) (barnyard grass (Eo) [2]) | Or (herbicidal effect index on crop) (rice (Or)) | Mo (herbicidal effect index) (monochoria (Mo) [3]) | Eo (herbicidal effect index) (barnyard grass (Eo) [4]) | Ec (herbicidal effects, index) (barnyard grass (Ec)) | Herbicidal effect index, Mo (monochoria (Mo) [1]) | Herbicidal effect index, Eo (barnyard grass (Eo) [2]) | Or (effect on crop plant rice, index) (rice (Or)) | Mo (herbicidal effects, index) (monochoria (Mo) [3]) | Eo (herbicidal effects, index) (barnyard grass (Eo) [4])
1 | Cc1ccc(C(C)(C)C(=O)N(C)C(c2cncnc2C(F)(F)F)C(C)C)cc1 (racemic) [1-175] | 5 | 5 | 0 | 5 | 5 |  |  |  |  |  | 
2 | CC(C)C(c1cncnc1C(F)(F)F)N(C)C(=O)CSc1ccc(Cl)cc1 (racemic) [1-183] | 5 | 5 | 0 | 5 | 5 |  |  |  |  |  | 
3 | CC(c1cncnc1C(C)(C)C)N(C)C(=O)Cc1ccccc1 (racemic) [1-188] | 5 | 5 | 0 | 5 | 5 |  |  |  |  |  | 
4 | CC(c1cncnc1C(C)(C)C)N(C)C(=O)Cc1ccc(F)cc1 (racemic) [1-189] | 5 | 5 | 0 | 5 | 5 |  |  |  |  |  | 
5 | CC(C)C(c1cncnc1-c1ccccc1)N(C)C(=O)Cc1ccc(Cl)cc1 (racemic) [1-324] | 5 | 5 | 1 | 5 | 5 |  |  |  |  |  | 
6 | Cc1ccc(CC(=O)N(C)C(c2cncnc2-c2ccccc2)C(C)C)cc1 (racemic) [1-325] | 5 | 5 | 1 | 5 | 5 |  |  |  |  |  | 
7 | COc1ccc(C(c2cncnc2C(F)(F)F)N(C)C(=O)Cc2ccc(C)cc2)cc1 (racemic) [1-487] | 5 | 5 | 1 | 5 | 5 |  |  |  |  |  | 
8 | COc1ccccc1C(c1cncnc1C(F)(F)F)N(C)C(=O)Cc1ccc(C)cc1 (racemic) [1-491] | 5 | 5 | 0 | 5 | 5 |  |  |  |  |  | 
9 | C#CCN(C(=O)Cc1ccc(Cl)cc1F)C(c1cncnc1C(F)(F)F)C(C)C (racemic) [1-615] | 5 | 5 | 1 | 5 | 5 |  |  |  |  |  | 
10 | CN(C(=O)Cc1ccc(Cl)s1)C(c1cncnc1C(F)(F)F)C(C)(C)C (racemic) [2-42] | 5 | 5 | 0 | 5 | 5 |  |  |  |  |  | 
11 | CC(C)C(c1cncnc1C(F)(F)F)N(C)C(=O)COc1nc2ccccc2s1 (racemic) [2-48] | 5 | 5 | 1 | 5 | 5 |  |  |  |  |  | 
12 | CC(C)C(c1cncnc1C(F)(F)F)N(C)C(=O)N(C)c1ccsc1 (racemic) [2-63] | 5 | 5 |  |  |  | 5 |  |  |  |  | 
13 | CC(C)C(c1cncnc1C(F)(F)F)N(C)C(=O)N(C)C1CCCCC1 (racemic) [2-72] | 5 | 5 |  |  |  | 5 |  |  |  |  | 
14 | COCc1ncncc1C(C(C)C)N(C)C(=O)Cc1ccc(Cl)s1 (racemic) [2-77] | 5 | 5 |  |  |  | 5 |  |  |  |  | 
15 | O=C(Cc1ccc(C(F)(F)F)cc1)NC(c1cncnc1C(F)(F)Cl)C1CC1 (racemic) [Compound 1-4] |  |  |  |  |  |  | 5 | 5 | 1 | 4 | 5
16 | COc1ccc(SC(=O)N(C)C(c2cncnc2C(F)(F)Cl)C(C)C)cc1 (racemic) [Compound 1-18] |  |  |  |  |  |  | 5 | 5 | 1 | 4 | 5

Row | SMILES | herbicidal effects, Mo (monochoria) (monochoria (Mo) [1]) | herbicidal effects, Eo (barnyard grass) (barnyard grass (Eo) [2]) | Or (herbicidal effect index on crop) (rice (Or)) | Mo (herbicidal effect index) (monochoria (Mo) [3]) | Eo (herbicidal effect index) (barnyard grass (Eo) [4]) | Ec (herbicidal effects, index) (barnyard grass (Ec)) | Herbicidal effect index, Mo (monochoria (Mo) [1]) | Herbicidal effect index, Eo (barnyard grass (Eo) [2]) | Or (effect on crop plant rice, index) (rice (Or)) | Mo (herbicidal effects, index) (monochoria (Mo) [3]) | Eo (herbicidal effects, index) (barnyard grass (Eo) [4])
17 | CC(C)C(c1cncnc1C(F)(F)F)N(C)C(=O)Cc1cccc(C(F)(F)F)c1 (racemic) [Compound 1-39] |  |  |  |  |  |  | 5 | 5 | 0 | 5 | 5
18 | CC(C)C(c1cncnc1C(F)(F)F)N(C)C(=O)Cc1ccc(C(C)(C)C)cc1 (racemic) [Compound 1-43] |  |  |  |  |  |  | 5 | 5 | 1 | 5 | 5
19 | CSc1ccc(CC(=O)N(C)C(c2cncnc2C(F)(F)F)C(C)C)cc1 (racemic) [Compound 1-44] |  |  |  |  |  |  | 5 | 5 | 0 | 5 | 5
20 | Cc1ccc(CC(=O)N(C2CC2)C(c2cncnc2C(F)(F)F)C(C)C)cc1 (racemic) [Compound 1-82] |  |  |  |  |  |  | 5 | 5 | 0 | 5 | 5
21 | CC(C)C(c1cncnc1C(F)(F)F)N(C)C(=O)C=Cc1ccc(Cl)cc1 (racemic) [Compound 1-86] |  |  |  |  |  |  | 5 | 5 | 0 | 5 | 5
22 | Cc1ccc(CC(=O)N(C)C(c2cncnc2C(F)(F)Cl)C2CC2)cc1 (racemic) [Compound 1-93] |  |  |  |  |  |  | 5 | 5 | 0 | 5 | 5
23 | CC(C)C(c1cncnc1C(F)(F)F)N(C)C(=O)Cc1ccc(S(C)(=O)=O)cc1 (racemic) [Compound 1-104] |  |  | 1 | 5 | 5 |  | 5 | 5 |  |  | 
24 | CC(C)C(c1cncnc1C(F)(F)F)N(C)C(=O)COc1ccccc1Cl (racemic) [Compound 1-132] | 5 | 5 | 0 | 5 | 5 |  |  |  |  |  | 
25 | CN(C(=O)Cc1ccc(Cl)cc1F)C(c1cncnc1C(F)(F)F)C(C)(C)C (racemic) [Compound 1-249] | 5 | 5 |  |  |  | 5 |  |  |  |  | 
26 | CC(C)c1ncncc1C(C(C)C)N(C)C(=O)Cc1ccc(Cl)cc1F (racemic) [Compound 1-254] | 5 | 5 |  |  |  | 5 |  |  |  |  | 
27 | CN(C(=O)Cc1cccc(F)c1)C(c1cncnc1C(F)(F)F)C(C)(C)C (racemic) [Compound 1-265] | 5 | 5 |  |  |  | 5 |  |  |  |  | 
28 | CN(C(=O)Cc1cccc(F)c1)C(c1ccccc1)c1cncnc1C(F)(F)F (racemic) [Compound 1-266] | 5 | 5 |  |  |  | 5 |  |  |  |  | 
29 | CN(C(=O)Cc1ccc(F)cc1F)C(c1cncnc1C(F)(F)F)C(C)(C)C (racemic) [Compound 1-273] | 5 | 5 |  |  |  | 5 |  |  |  |  | 
30 | CN(C(=O)Cc1ccc(F)cc1F)C(c1ccccc1)c1cncnc1C(F)(F)F (racemic) [Compound 1-274] | 5 | 5 |  |  |  | 5 |  |  |  |  | 
31 | COC(=O)c1ncncc1C(C(C)C)N(C)C(=O)C(C)c1ccc(Cl)cc1 (single isomer, unassigned) [1-593] | 5 | 5 | 0 | 4 | 5 |  |  |  |  |  | 
